pIC50: −log10 of the molar value. Activity calls are given as the source filed them. No cut-off for these calls is given here.
What was measured:
[1] = Antioxidant activity assessed as DPPH radicle scavenging activity after 30 mins by spectrometric analysis; assay type: functional
[2] = system: Micrococcus luteus; test: Antibacterial activity Micrococcus luteus; assay type: functional, organism-based
[3] = system: Escherichia coli; test: Antibacterial activity Escherichia coli; assay type: functional, organism-based

Compound | pIC50 [1] | Activity [2] | Activity [3]
Cc1c(C)c2c(c(C)c1O)CC[C@@](C)(CCC[C@H](C)CCC[C@H](C)CCCC(C)C)O2 [ALPHA-TOCOPHEROL] | 4.55 |  | 
COc1cc(O)c2c(c1O)C(=O)[C@@]13C[C@H]4[C@@H](C[C@H]1C(C)=O)OC(=O)[C@@]4(OC)C(O)=C3C2=O | 3.78 | inactive | inactive
